PubChem BioAssay (NCI)
Where “and” joins values, the source holds several entries; their conditions need not be identical. Equal values may be shown once.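 Results reflect a 48-hour exposure of cells in 96-well plates to compound at five concentrations. Here, GI50 denotes the concentration required for 50% inhibition of growth. The concentration for full growth arrest is given as TGI.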

Key:
Assay in all cases: NCI tumour cell line growth inhibition, 48 h
MDA-MB-468 breast = test system: MDA-MB-468 breast
SK-MEL-2 melanoma = test system: SK-MEL-2 melanoma
SF-295 CNS = test system: SF-295 CNS
UO-31 renal = test system: UO-31 renal
CAKI-1 renal = test system: CAKI-1 renal
HCT-15 colon = test system: HCT-15 colon
SR leukemia = test system: SR leukemia
MDA-MB-231 breast = test system: MDA-MB-231 breast
SNB-75 CNS = test system: SNB-75 CNS
SN12C renal = test system: SN12C renal
NCI-H23 lung = test system: NCI-H23 lung
TK-10 renal = test system: TK-10 renal
MOLT-4 leukemia = test system: MOLT-4 leukemia
HOP-92 NSCLC = test system: HOP-92 NSCLC
SK-OV-3 ovarian = test system: SK-OV-3 ovarian
DU-145 prostate = test system: DU-145 prostate
OVCAR-8 ovarian = test system: OVCAR-8 ovarian
OVCAR-3 ovarian = test system: OVCAR-3 ovarian
T-47D breast = test system: T-47D breast
EKVX NSCLC = test system: EKVX NSCLC
M14 melanoma = test system: M14 melanoma
LOX IMVI melanoma = test system: LOX IMVI melanoma
MCF7 breast = test system: MCF7 breast
K-562 leukemia = test system: K-562 leukemia
786-0 renal = test system: 786-0 renal
NCI-H460 lung = test system: NCI-H460 lung
NCI-H226 lung = test system: NCI-H226 lung
HL-60(TB) leukemia = test system: HL-60(TB) leukemia
MALME-3M melanoma = test system: MALME-3M melanoma
CCRF-CEM leukemia = test system: CCRF-CEM leukemia
SK-MEL-5 melanoma = test system: SK-MEL-5 melanoma
OVCAR-4 ovarian = test system: OVCAR-4 ovarian
ACHN renal = test system: ACHN renal
SK-MEL-28 melanoma = test system: SK-MEL-28 melanoma
A549 NSCLC = test system: A549 NSCLC
RXF 393 renal = test system: RXF 393 renal
HT29 colon = test system: HT29 colon
HOP-62 NSCLC = test system: HOP-62 NSCLC
COLO 205 colon = test system: COLO 205 colon
U251 CNS = test system: U251 CNS
IGROV1 ovarian = test system: IGROV1 ovarian
PC-3 prostate = test system: PC-3 prostate
SF-539 CNS = test system: SF-539 CNS
SF-268 CNS = test system: SF-268 CNS
RPMI-8226 leukemia = test system: RPMI-8226 leukemia
HCC-2998 colon = test system: HCC-2998 colon
UACC-257 melanoma = test system: UACC-257 melanoma
MDA-MB-435 = test system: MDA-MB-435
NCI-H522 lung = test system: NCI-H522 lung
OVCAR-5 ovarian = test system: OVCAR-5 ovarian
SW-620 colon = test system: SW-620 colon
A498 renal = test system: A498 renal
UACC-62 melanoma = test system: UACC-62 melanoma
SNB-19 CNS = test system: SNB-19 CNS

## Nc1cc(-c2c[nH]c3ccc(F)cc23)nc2cc(-c3c[nH]c4ccc(F)cc34)nn12
MDA-MB-468 breast
  GI50: 2.01 µM
  TGI: 3.84 µM

## N#Cc1c(-c2ccccc2)nc(SCC2CO2)nc1N1CCOCC1 (configuration not stated)
MDA-MB-468 breast
  GI50: 4.15 µM
  TGI: > 68.4 µM

## COc1ccc2oc(=O)cc(C(c3ccc[nH]3)c3ccc[nH]3)c2c1
MDA-MB-468 breast
  GI50: 0.344 µM
  TGI: 3.34 µM

## CCN1CCN(Cc2ccc(-c3cc4c(N[C@H](C)c5ccccc5)ncnc4[nH]3)cc2)CC1
MDA-MB-468 breast
  GI50: 0.0202 µM and 0.0419 µM
  TGI: 0.286 µM and 0.481 µM

## Cc1ccc2c(c1)C(C)Cc1c(ncnc1-n1cnc3ccccc31)N2C (configuration not stated)
MDA-MB-468 breast
  GI50: 0.262 µM
  TGI: 23.2 µM

## Nc1c(C(=O)c2cccc(CCCN3CCOCC3)c2)cnn1-c1ccc(F)cc1
MDA-MB-468 breast
  GI50: > 20.1 µM
  TGI: > 25 µM

## O=C(NC1CCN(Cc2ccccc2)CC1)c1cc(-c2ccncc2)nc2ccc(Cl)cc12
MDA-MB-468 breast
  GI50: 6.82 µM
  TGI: 37 µM

## C=C1CC[C@@H]2[C@]3(C)COC(c4cn(-c5ccccc5)nc4-c4cccc([N+](=O)[O-])c4)O[C@@H]3CC[C@@]2(C)[C@@H]1C/C=C1/C(=O)OC[C@H]1O (some centres not stated)
SK-MEL-2 melanoma
  GI50: 1.78 µM
  TGI: 3.51 µM
SF-295 CNS
  GI50: 1.68 µM
  TGI: 3.19 µM
UO-31 renal
  GI50: 1.82 µM
  TGI: 5.46 µM
CAKI-1 renal
  GI50: 2.81 µM
  TGI: > 100 µM
HCT-15 colon
  GI50: 1.74 µM
  TGI: 3.58 µM
SR leukemia
  GI50: 3.46 µM
  TGI: > 100 µM
MDA-MB-231 breast
  GI50: 1.84 µM
  TGI: 3.44 µM
SNB-75 CNS
  GI50: 7.34 µM
  TGI: 50.1 µM
SN12C renal
  GI50: 2.93 µM
  TGI: 10.3 µM
NCI-H23 lung
  GI50: 1.83 µM
  TGI: 3.55 µM
TK-10 renal
  GI50: 2.22 µM
  TGI: 5.82 µM
MOLT-4 leukemia
  GI50: 2.87 µM
  TGI: > 100 µM
HOP-92 NSCLC
  GI50: 1.86 µM
  TGI: 3.64 µM
SK-OV-3 ovarian
  GI50: 29.8 µM
  TGI: > 100 µM
DU-145 prostate
  GI50: 4.11 µM
  TGI: 24.3 µM
OVCAR-8 ovarian
  GI50: 1.9 µM
  TGI: 5.04 µM
OVCAR-3 ovarian
  GI50: 1.87 µM
  TGI: 3.75 µM
T-47D breast
  GI50: 1.76 µM
  TGI: 5.02 µM
EKVX NSCLC
  GI50: 2.75 µM
  TGI: 7.98 µM
M14 melanoma
  GI50: 2.08 µM
  TGI: 4.52 µM
LOX IMVI melanoma
  GI50: 1.72 µM
  TGI: 3.34 µM
MCF7 breast
  GI50: 2.64 µM
  TGI: > 100 µM
K-562 leukemia
  GI50: 2.16 µM
  TGI: > 100 µM
786-0 renal
  GI50: 3.04 µM
  TGI: 10.3 µM
NCI-H460 lung
  GI50: 2.27 µM
  TGI: 4.8 µM
NCI-H226 lung
  GI50: 2.38 µM
  TGI: 6.59 µM
MDA-MB-468 breast
  GI50: 1.76 µM
  TGI: 3.52 µM
HL-60(TB) leukemia
  GI50: 1.73 µM
  TGI: > 100 µM
MALME-3M melanoma
  GI50: 1.78 µM
  TGI: 3.55 µM
CCRF-CEM leukemia
  GI50: 1.14 µM
  TGI: 5.01 µM
SK-MEL-5 melanoma
  GI50: 1.63 µM
  TGI: 3 µM
OVCAR-4 ovarian
  GI50: 4.05 µM
  TGI: > 100 µM
ACHN renal
  GI50: 1.89 µM
  TGI: 3.62 µM
SK-MEL-28 melanoma
  GI50: 2.04 µM
  TGI: 4.06 µM
A549 NSCLC
  GI50: 3.62 µM
  TGI: > 100 µM
RXF 393 renal
  GI50: 1.62 µM
  TGI: 3.2 µM
HT29 colon
  GI50: 1.82 µM
  TGI: 4.26 µM
HOP-62 NSCLC
  GI50: 3.15 µM
  TGI: 12.4 µM
COLO 205 colon
  GI50: 2.41 µM
  TGI: 5.06 µM
U251 CNS
  GI50: 1.74 µM
  TGI: 3.35 µM
IGROV1 ovarian
  GI50: 2.08 µM
  TGI: 4.27 µM
PC-3 prostate
  GI50: 2.75 µM
  TGI: 9.04 µM
SF-539 CNS
  GI50: 1.74 µM
  TGI: 3.18 µM
SF-268 CNS
  GI50: 7.65 µM
  TGI: > 100 µM
RPMI-8226 leukemia
  GI50: 2.45 µM
  TGI: > 100 µM
HCC-2998 colon
  GI50: 1.92 µM
  TGI: 3.53 µM
UACC-257 melanoma
  GI50: 1.8 µM
  TGI: 3.68 µM
MDA-MB-435
  GI50: 3.03 µM
  TGI: 18.3 µM
NCI-H522 lung
  GI50: 1.75 µM
  TGI: 3.41 µM
OVCAR-5 ovarian
  GI50: 2.06 µM
  TGI: 5.05 µM
SW-620 colon
  GI50: 2.21 µM
  TGI: 5.13 µM
A498 renal
  GI50: 18.9 µM
  TGI: 45.4 µM
UACC-62 melanoma
  GI50: 1.69 µM
  TGI: 3.46 µM
SNB-19 CNS
  GI50: 3.65 µM
  TGI: 15 µM
